Test results taken from paper PMC3496871 (Molecular bioSystems, 2012).
“Also recorded” adds a separate entry of the source.

Key:
Eis_Ava [1] = target: T1, Eis_Ava (Trichormus variabilis (Anabaena variabilis), UniProt Q3M362); assay: biochemical; format: biochemical
Eis_Ava [2] = assay: biochemical; format: biochemical
Eis_Msm [3] = target: T2, Eis_Msm (Mycolicibacterium smegmatis, UniProt A0QY29); format: biochemical; conditions: read-out: IC50 Eis_Msm; NEO acetylation
Eis_Ava [4] = target: T1, Eis_Ava; assay: Number of acetylations of AGs by Eis_Ava; format: biochemical; conditions: mass spectrometry; AG 0.67 mM, AcCoA 6.7 mM, Eis_Ava 10 μM, overnight at rt
[5] = tested on: NC[C@H]1O[C@H](O[C@H]2[C@H](O)[C@@H](O)[C@H](N)C[C@@H]2N)[C@H](N)[C@@H](O)[C@@H]1O; assay: purified protein, by the assay type; format: biochemical, Mycobacterium tuberculosis; conditions: other: Eis_Mtb […], 500 μM AcCoA, apparent, pH 7.5
Eis_Msm [6] = conditions: cited from earlier work
Eis_Mtb [7] = target: T3, Eis_Mtb (Mycobacterium tuberculosis, UniProt P9WFK7); format: biochemical; conditions: 500 μM AcCoA, apparent
T3 sequence (P9WFK7 whole entry): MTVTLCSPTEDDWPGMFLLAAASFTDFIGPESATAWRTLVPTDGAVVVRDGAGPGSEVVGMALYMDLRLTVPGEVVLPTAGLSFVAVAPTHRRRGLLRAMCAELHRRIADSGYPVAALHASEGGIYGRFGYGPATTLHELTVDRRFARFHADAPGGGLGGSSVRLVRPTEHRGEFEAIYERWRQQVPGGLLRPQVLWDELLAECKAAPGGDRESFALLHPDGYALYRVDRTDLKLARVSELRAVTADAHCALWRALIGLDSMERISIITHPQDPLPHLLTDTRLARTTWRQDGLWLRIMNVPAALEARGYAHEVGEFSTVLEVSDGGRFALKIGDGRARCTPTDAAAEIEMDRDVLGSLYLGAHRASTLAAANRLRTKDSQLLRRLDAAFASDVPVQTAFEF

Eis_Mtb [8] = target: T3, Eis_Mtb; conditions: cited from earlier work
Eis_Mtb [9] = target: T3, Eis_Mtb; conditions: transfer onto a few AGs; cited from earlier work
Eis_Ava [10] = target: T1, Eis_Ava; assay: Acyl-CoA cosubstrate profile of Eis_Ava; format: biochemical; conditions: 6 acyl-CoA cosubstrates tested
[11] = tested on: CN[C@@H]1[C@@H](O[C@H]2O[C@H](CO)[C@@H](N)[C@H](O)[C@H]2O)OC2C[C@@H](N)[C@@H](O[C@H]3[C@H](O)[C@@H](O)[C@H](N)C[C@@H]3N)OC2[C@@H]1O; assay: purified protein, by the assay type; format: biochemical, Mycobacterium smegmatis; conditions: other: Eis_Msm […], 500 μM AcCoA, apparent, pH 7.5
[12] = tested on: NC[C@H]1O[C@H](O[C@H]2[C@H](O)[C@@H](O)[C@H](N)C[C@@H]2N)[C@H](N)[C@@H](O)[C@@H]1O; assay: purified protein, by the assay type; format: biochemical, Mycobacterium smegmatis; conditions: other: Eis_Msm […], 500 μM AcCoA, apparent, pH 7.5
[13] = tested on: NC[C@@H]1O[C@H](O[C@H]2[C@@H](O)[C@H](O[C@@H]3[C@@H](O)[C@H](N)C[C@H](N)[C@H]3O[C@H]3O[C@H](CO)[C@@H](O)[C@H](O)[C@H]3N)O[C@@H]2CO)[C@H](N)[C@@H](O)[C@@H]1O; assay: purified protein, by the assay type; format: biochemical, Mycobacterium smegmatis; conditions: other: Eis_Msm […], 500 μM AcCoA, apparent, pH 7.5
[14] = tested on: NC[C@@H]1O[C@H](O[C@H]2[C@@H](O)[C@H](O[C@@H]3[C@@H](O)[C@H](N)C[C@H](N)[C@H]3O[C@H]3O[C@H](CN)[C@@H](O)[C@H](O)[C@H]3N)O[C@@H]2CO)[C@H](N)[C@@H](O)[C@@H]1O; assay: purified protein, by the assay type; format: biochemical, Mycobacterium smegmatis; conditions: other: Eis_Msm […], 500 μM AcCoA, apparent, pH 7.5
Eis_Ava [15] = target: T1, Eis_Ava; assay: UV-Vis assay of Eis_Ava activity against KAN and 6′-glycinyl-KAN; conditions: AG 0.1 mM, AcCoA 0.5 mM, Eis 0.5 μM
Eis_Msm [16] = target: T2, Eis_Msm; assay: UV-Vis assay of Eis_Msm activity against KAN and 6′-glycinyl-KAN; conditions: AG 0.1 mM, AcCoA 0.5 mM, Eis 0.5 μM
Eis_Mtb [17] = target: T3, Eis_Mtb; format: biochemical; conditions: AG 0.1 mM, AcCoA 0.5 mM, Eis 0.5 μM
Eis_Ava [18] = target: T1, Eis_Ava; assay: Regio-specificity of NEA acetylation by Eis_Ava; format: biochemical
[19] = tested on: CN[C@@H]1[C@@H](O[C@H]2O[C@H](CO)[C@@H](N)[C@H](O)[C@H]2O)OC2C[C@@H](N)[C@@H](O[C@H]3[C@H](O)[C@@H](O)[C@H](N)C[C@@H]3N)OC2[C@@H]1O; assay: purified protein, by the assay type; format: biochemical, Anabaena variabilis; conditions: other: Eis_Ava […], 500 μM AcCoA, apparent, pH 7.5
[20] = tested on: NC[C@H]1O[C@H](O[C@H]2[C@H](O)[C@@H](O)[C@H](N)C[C@@H]2N)[C@H](N)[C@@H](O)[C@@H]1O; assay: purified protein, by the assay type; format: biochemical, Anabaena variabilis; conditions: other: Eis_Ava […], 500 μM AcCoA, apparent, pH 7.5
[21] = tested on: NC[C@@H]1O[C@H](O[C@H]2[C@@H](O)[C@H](O[C@@H]3[C@@H](O)[C@H](N)C[C@H](N)[C@H]3O[C@H]3O[C@H](CO)[C@@H](O)[C@H](O)[C@H]3N)O[C@@H]2CO)[C@H](N)[C@@H](O)[C@@H]1O; assay: purified protein, by the assay type; format: biochemical, Anabaena variabilis; conditions: other: Eis_Ava […], 500 μM AcCoA, apparent, pH 7.5
[22] = tested on: NC[C@@H]1O[C@H](O[C@H]2[C@@H](O)[C@H](O[C@@H]3[C@@H](O)[C@H](N)C[C@H](N)[C@H]3O[C@H]3O[C@H](CN)[C@@H](O)[C@H](O)[C@H]3N)O[C@@H]2CO)[C@H](N)[C@@H](O)[C@@H]1O; assay: purified protein, by the assay type; format: biochemical, Anabaena variabilis; conditions: other: Eis_Ava […], 500 μM AcCoA, apparent, pH 7.5

[H]/N=C(\N/C(=N/[H])NCCCCCCNC(=N)NC(=N)Nc1ccc(Cl)cc1)Nc1ccc(Cl)cc1 [compound 1, chlorhexidine]
IC50 (Eis_Ava [1]): 20 ± 7 µM
IC50 for Eis_Ava fold higher than against Eis_Msm (Eis_Ava [2]): 11 fold
IC50 for Eis_Ava fold higher than for Eis_Mtb (Eis_Ava [2]): 107 fold
IC50 (Eis_Msm [3]): 1850 ± 390 nM

[H]/N=C(/N)N[C@H]1[C@H](O)[C@@H](O)[C@H](O[C@@H]2O[C@@H](C)[C@](O)(C=O)[C@H]2O[C@@H]2O[C@@H](CO)[C@H](O)[C@@H](O)[C@@H]2NC)[C@@H](N/C(N)=N\[H])[C@@H]1O [STR, streptomycin]
number of acetylations by Eis_Ava (Eis_Ava [4]): not be substrates

Eis_Mtb (Mycobacterium tuberculosis H37Rv)
Km [5]: 1315 ± 492 µM
kcat [5]: 0.699 ± 0.136 s⁻¹
kcat/Km [5]: 532 ± 224 M⁻¹ s⁻¹

NC[C@@H]1O[C@H](O[C@H]2[C@@H](O)[C@H](O[C@@H]3[C@@H](O)[C@H](N)C[C@H](N)[C@H]3O[C@H]3O[C@H](CO)[C@@H](O)[C@H](O)[C@H]3N)O[C@@H]2CO)[C@H](N)[C@@H](O)[C@@H]1O [PAR, paromomycin]
number of acetylations by Eis_Ava (Eis_Ava [4]): tri-acetylation
number of acetylations by Eis_Msm (Eis_Msm [6]): tri-acetylation
Km (Eis_Mtb [7]): 110 ± 21 µM
kcat (Eis_Mtb [7]): 0.136 ± 0.012 s⁻¹
number of acetylations by Eis_Mtb (Eis_Mtb [8]): di-acetylation

CCC(=O)SCCNC(=O)CCNC(=O)[C@H](O)C(C)(C)COP(=O)(O)OP(=O)(O)OC[C@H]1O[C@@H](n2cnc3c(N)ncnc32)[C@H](O)[C@@H]1OP(=O)(O)O [n-propionyl-CoA]
acceptance as cosubstrate by Eis_Mtb (Eis_Mtb [9]): efficiently accepting
acceptance as cosubstrate by Eis_Ava (Eis_Ava [10]): accepted

C/C=C/C(=O)SCCNC(=O)CCNC(=O)[C@H](O)C(C)(C)COP(=O)(O)OP(=O)(O)OC[C@H]1O[C@@H](n2cnc3c(N)ncnc32)[C@H](O)[C@@H]1OP(=O)(O)O [crotonyl-CoA]
acceptance as cosubstrate by Eis_Mtb (Eis_Mtb [9]): moderately so

Eis_Msm (Mycolicibacterium smegmatis MC2 155)
Km [11]: 150 ± 43 µM
kcat [11]: 0.019 ± 0.002 s⁻¹
kcat/Km [11]: 127 ± 39 M⁻¹ s⁻¹
Km [12]: 1302 ± 312 µM
kcat [12]: 0.687 ± 0.083 s⁻¹
kcat/Km [12]: 528 ± 142 M⁻¹ s⁻¹
Km [13]: 738 ± 158 µM
kcat [13]: 0.235 ± 0.033 s⁻¹
kcat/Km [13]: 318 ± 82 M⁻¹ s⁻¹
Km [14]: 110 ± 14 µM
kcat [14]: 0.148 ± 0.006 s⁻¹
kcat/Km [14]: 1340 ± 180 M⁻¹ s⁻¹

CN[C@@H]1[C@H](O)[C@H](NC)[C@H]2O[C@@]3(O)C(=O)C[C@@H](C)O[C@H]3O[C@@H]2[C@H]1O [SPT, spectinomycin]
number of acetylations by Eis_Ava (Eis_Ava [4]): not be substrates

kanamycin A
acetylation by Eis_Ava (UV-Vis) (Eis_Ava [15]): efficiently gets multi-acetylated
acetylation by Eis_Msm (UV-Vis) (Eis_Msm [16]): efficiently gets multi-acetylated
acetylation by Eis_Mtb (UV-Vis) (Eis_Mtb [17]): efficiently gets multi-acetylated

CC(=O)SCCNC(=O)CCNC(=O)[C@H](O)C(C)(C)COP(=O)(O)OP(=O)(O)OC[C@H]1O[C@@H](n2cnc3c(N)ncnc32)[C@H](O)[C@@H]1OP(=O)(O)O [AcCoA]
acceptance as cosubstrate by Eis_Mtb (Eis_Mtb [9]): efficiently accepting
acceptance as cosubstrate by Eis_Ava (Eis_Ava [10]): accepted

CN[C@@H]1[C@@H](O[C@H]2O[C@H](CO)[C@@H](N)[C@H](O)[C@H]2O)OC2C[C@@H](N)[C@@H](O[C@H]3[C@H](O)[C@@H](O)[C@H](N)C[C@@H]3N)OC2[C@@H]1O (stereo partly shown) [APR, apramycin]
number of acetylations by Eis_Ava (Eis_Ava [4]): mono-acetylated
number of acetylations by Eis_Msm (Eis_Msm [6]): Di-acetylation
substrate of Eis_Mtb (Eis_Mtb [8]): not be a substrate

CC(C)(COP(=O)(O)OP(=O)(O)OC[C@H]1O[C@@H](n2cnc3c(N)ncnc32)[C@H](O)[C@@H]1OP(=O)(O)O)[C@@H](O)C(=O)NCCC(=O)NCCSC(=O)CC(=O)O [malonyl-CoA]
acceptance as cosubstrate by Eis_Mtb (Eis_Mtb [9]): moderately so

NCC(=O)NCC1OC(OC2C(N)CC(N)C(OC3OC(CO)C(O)C(N)C3O)C2O)C(O)C(O)C1O (stereo not shown) [6′-glycinyl-KAN]
acetylation by Eis_Ava (UV-Vis) (Eis_Ava [15]): not a substrate; also recorded: almost inactive
acetylation by Eis_Msm (UV-Vis) (Eis_Msm [16]): not a substrate; also recorded: almost inactive
acetylation by Eis_Mtb (UV-Vis) (Eis_Mtb [17]): not a substrate; also recorded: almost inactive

NC[C@H]1O[C@H](O[C@H]2[C@H](O)[C@@H](O)[C@H](N)C[C@@H]2N)[C@H](N)[C@@H](O)[C@@H]1O [NEA, neamine]
positions sequentially acetylated by Eis_Msm (Eis_Msm [6]): 2′-, 6′-, and 1-position
number of acetylations of NEA by Eis_Ava observed by TLC and NMR (Eis_Ava [18]): di-acetylation
first position acetylated by Eis_Ava (Eis_Ava [18]; TLC and NMR): 2′-position
second site modified by Eis_Ava (Eis_Ava [18]; TLC and NMR): 1-position
positions sequentially acetylated by Eis_Mtb (Eis_Mtb [8]): 2′-, 6′-, and 1-position

Eis_Ava (Trichormus variabilis ATCC 29413)
Km [19]: 337 ± 98 µM
kcat [19]: 0.019 ± 0.002 s⁻¹
kcat/Km [19]: 57 ± 18 M⁻¹ s⁻¹
Km [20]: 42 ± 9 µM
kcat [20]: 0.352 ± 0.021 s⁻¹
kcat/Km [20]: 7410 ± 1940 M⁻¹ s⁻¹
Km [21]: 237 ± 36 µM
kcat [21]: 0.183 ± 0.013 s⁻¹
kcat/Km [21]: 773 ± 132 M⁻¹ s⁻¹
Km [22]: 101 ± 16 µM
kcat [22]: 0.106 ± 0.006 s⁻¹
kcat/Km [22]: 1050 ± 184 M⁻¹ s⁻¹
